# Values of other authors in publication PMC8146568, “Thermococcus bergensis sp. nov., a Novel Hyperthermophilic Starch-Degrading Archaeon” (Biology, 2021).
# Where two headings read alike, the source gives them in different places.
# System: T1, glyceraldehyde-3-phosphate ferredoxin oxidoreductase (GAPOR)
# T1 construct: gene gor; native, purified from starch-grown culture of "strain 7324" (DSM 8774 mixed culture, formerly attributed to Archaeoglobus fulgidus); 66 kDa monomer; N-terminus MRFSVLKINLNEKKVX(X)EVFEREXV
# Assay: benzyl viologen-dependent GAP oxidation, steady-state kinetics
# Format: biochemical, Thermococcus bergensis
# Conditions: pH 7.8, 50 °C, read-out: apparent Km
Km (benzyl viologen as electron acceptor),SMILES,"Km (artificial electron acceptor, GAP as co-substrate)"
5 µM,"O=C[C@H](O)COP(=O)(O)O [GAP, glyceraldehyde-3-phosphate]",
,"c1ccc(C[n+]2ccc(-c3cc[n+](Cc4ccccc4)cc3)cc2)cc1 [BV, benzyl viologen]",4000 µM
